Tested on: ApoB secretion, HepG2 cells
Assay: Quantification of the secretion of ApoB (HepG2 cells, immunoprecipitation, scintillation counting)
Type: cell-based
Conditions: 24 hours of incubation; for IC50: Homo sapiens
Description: C.1. Quantification of the Secretion of ApoB
HepG2 cells were cultured in 24-well plates in Minimal Essential Medium Rega 3 containing 10% fetal calf serum. Rega 3 has the following composition: CaCl2 (264 μg/ml), KCl (400 μg/ml), MgSO4.7H2O (200 μg/ml), NaCl (6800 μg/ml), NaHCO3 (850 μg/ml), NaH2PO4.H2O (158 μg/ml), D-glucose (1000 μg/ml), phenol red (10 μg/ml), L-alanine (8.9 μg/ml), L-arginine HCl (12 μg/ml), L-asparagine.H2O (15 μg/ml), L-aspartic acid (13.3 μg/ml), L-cystine (24 μg/ml), L-glutamic acid (14.7 μg/ml), glycine (7.5 μg/ml), L-histidine.HCl .H2O (42 μg/ml), L-isoleucine (52 μg/ml), L-leucine (52 μg/ml), L-lysine.HCl (72.5 μg/ml), L-methionine (15 μg/ml), L-phenylalanine (32 μg/ml), L-proline (11.5 μg/ml), L-serine (10.5 μg/ml), L-threonine (48 μg/ml), L-tryptophan (10 μg/ml), L-tyrosine (36 μg/ml), L-valine (46 μg/ml), D-Ca pantothenate (1 μg/ml), choline chloride (1 μg/ml), folic acid (1 μg/ml), 1-enositol (2 μg/ml), nicotinamide (1 μg/ml), pyridoxal HCl (1 μg/ml), riboflavin (0.1 μg/ml) and thiamine HCl (1 μg/ml).
At 70% confluency, the medium was changed and the test compound or carrier (dimethylsulfoxide, 0.4% final concentration) was added. After 24 hours of incubation, the medium was transferred to Eppendorf tubes and cleared by centrifugation. A sheep antibody directed against either apo B was added to the supernatant and the mixture was kept at 8° C. for 24 hours. Then, rabbit anti-sheep antibody was added and the immune complex was allowed to precipitate for 24 hours at 8° C. The immunoprecipitate was pelleted by centrifugation for 25 minutes at 1320 g and washed twice with a buffer containing 40 mM 4-morpholinepropanesulfonic acid, 40 mM NaH2PO4, 100 mM NaF, 0.2 mM dithiothreitol, 5 mM ethylenediamine tetraacetic acid, 5 mM ethylenebis (oxyethylenenitrilo) tetraacetic acid, 1% Triton-X-100, 0.5% sodium deoxycholate, 0.1% sodium dodecylsulphate, 0.2 μM leupeptin and 0.2 μM phenylmethylsulphonylfluoride. Radioactivity in the pellet was quantified by liquid scintillation counting.
Resulting IC50 values are enumerated in Table C.1 for a number of compounds No. 1 to No. 123.

## O=C(Nc1ccc(N2CCC(C(C(=O)Nc3ccccc3)c3ccccc3)CC2)cc1)c1ccccc1-c1ccc(Cl)cc1 (stereo not shown) [Co. No. 113]
HepG2, 24 h
  IC50: 115 nM

## CCNC(=O)C(c1ccccc1)C1CCN(c2ccc(NC(=O)c3ccccc3-c3cccc(C)c3)cc2)CC1 (stereo not shown) [Co. No. 90]
HepG2, 24 h
  IC50: 14.1 nM

## CCCNC(=O)C(c1ccccc1)C1CCN(c2ccc(NC(=O)c3ccccc3Oc3ccccc3)cc2)CC1 (stereo not shown) [Co. No. 19]
HepG2, 24 h
  IC50: 264 nM

## CCNC(=O)C(c1ccc(F)cc1)C1CCN(c2ccc(NC(=O)c3ccccc3-c3ccc(C(F)(F)F)cc3)cc2)CC1 (stereo not shown) [Co. No. 256]
HepG2, 24 h
  IC50: 15.1 nM

## O=C(Nc1ccc(C2=CCN(C(C(=O)NCc3ccccc3)c3ccccc3)CC2)cc1)c1ccccc1-c1ccccc1 (stereo not shown) [Co. No. 166]
HepG2, 24 h
  IC50: 36 nM

## O=C(Nc1ccc(C2CCN(C(C(=O)NCc3ccccc3)c3ccccc3)CC2)cc1)c1ccccc1-c1ccccc1 (stereo not shown) [Co. No. 161]
HepG2, 24 h
  IC50: 68.9 nM

## CCNC(=O)C(c1ccccc1)N1CCN(c2ccc(NC(=O)c3ccccc3-c3ccc(C(F)(F)F)cc3)c(Cl)c2)CC1 (stereo not shown) [Co. No. 214]
HepG2, 24 h
  IC50: < 30 nM

## CCOC(=O)C(c1ccccc1)N1CCCN(c2ccc(NC(=O)c3ccccc3-c3ccc(C(F)(F)F)cc3)cc2)CC1 (stereo not shown) [Co. No. 120]
HepG2, 24 h
  IC50: 357 nM

## C=CCNC(=O)C(c1ccccc1)N1CCC(c2ccc(NC(=O)c3ccccc3-c3ccccc3)cc2)CC1 (stereo not shown) [Co. No. 163]
HepG2, 24 h
  IC50: 250 nM

## COC(=O)C(c1ccccc1)N1CCC(c2ccc(NC(=O)c3ccccc3-c3ccccc3)cc2)CC1 (stereo not shown) [Co. No. 143]
HepG2, 24 h
  IC50: 234 nM

## COC(=O)C(c1ccc(Cl)cc1)N1CCN(c2ccc(NC(=O)c3ccccc3-c3ccc(C(F)(F)F)cc3)cc2)CC1 (stereo not shown) [Co. No. 263]
HepG2, 24 h
  IC50: 279 nM

## CCNC(=O)N(c1ccccc1)C1CCN(c2ccc(NC(=O)c3ccccc3-c3ccc(C(F)(F)F)cc3)cc2)CC1 [Co. No. 252]
  IC50: 12.2 nM

## CCNC(=O)C(c1ccccc1)N1CCN(c2ccc(NC(=O)c3cc(Cl)ccc3-c3ccc(C(F)(F)F)cc3)cc2)CC1 (stereo not shown) [Co. No. 200]
HepG2, 24 h
  IC50: 80.2 nM

## CCCNC(=O)C(c1ccccc1)C1CCN(c2ccc(NC(=O)c3ccccc3-c3cccc(C(F)(F)F)c3)cc2)CC1 (stereo not shown) [Co. No. 48]
HepG2, 24 h
  IC50: 634 nM

## CCNC(=O)C(c1ccccc1)C1CCN(c2ccc(NC(=O)c3ccccc3-c3ccc(C)cc3)cc2)CC1 (stereo not shown) [Co. No. 94]
HepG2, 24 h
  IC50: 44.1 nM

## Nc1cccc(-c2ccccc2C(=O)Nc2ccc(N3CCC(C(C(=O)NCc4ccccc4)c4ccccc4)CC3)cc2)c1 (stereo not shown) [Co. No. 98]
HepG2, 24 h
  IC50: 57.9 nM

## COC(=O)C(c1ccccc1)N1CCN(c2ccc(NC(=O)c3cc(OC)c(OC)cc3-c3ccc(C(F)(F)F)cc3)cc2)CC1 (stereo not shown) [Co. No. 193]
HepG2, 24 h
  IC50: 235 nM

## CCNC(=O)C(c1ccccc1)N1CCC(c2ccc(NC(=O)c3ccccc3-c3ccc(C(F)(F)F)cc3)cc2)CC1 (stereo not shown) [Co. No. 69, N-[4-[1-[2-(ethylamino)-2-oxo-1-phenylethyl]-4-piperidinyl]phenyl]-4′-(trifluoromethyl)-[1,1′-biphenyl]-2-carboxamide]
HepG2, 24 h
  IC50: 8.89 nM

## CCCNC(=O)C(c1ccccc1)C1CCN(c2ccc(NC(=O)c3ccccc3-c3ccccc3C)cc2)CC1 (stereo not shown) [Co. No. 131]
HepG2, 24 h
  IC50: 417 nM

## Nc1cccc(-c2ccccc2C(=O)Nc2ccc(N3CCC(C(C(=O)Nc4ccccc4)c4ccccc4)CC3)cc2)c1 (stereo not shown) [Co. No. 111]
HepG2, 24 h
  IC50: 221 nM

## COC(=O)C(c1ccccc1)N1CCN(c2ccc(N(C)C(=O)c3ccccc3-c3ccc(C(F)(F)F)cc3)cc2)CC1 (stereo not shown) [Co. No. 183]
HepG2, 24 h
  IC50: 21.6 nM

## O=C(Nc1ccc(N2CCC(C(C(=O)OCc3ccccc3)c3ccccc3)CC2)cc1)c1ccccc1-c1ccccc1 (stereo not shown) [Co. No. 177]
HepG2, 24 h
  IC50: 261 nM

## CCNC(=O)C(c1ccccc1)C1CCN(c2ccc(NC(=O)c3ccccc3-c3ccc(Cl)cc3)cc2)CC1 (stereo not shown) [Co. No. 91]
HepG2, 24 h
  IC50: 8.69 nM

## CCCNC(=O)C(c1ccccc1)C1CCN(c2ccc(NC(=O)c3ccccc3Cc3ccccc3)cc2)CC1 (stereo not shown) [Co. No. 20]
HepG2, 24 h
  IC50: 989 nM

## COC(=O)C(c1ccccc1)N1CCN(c2ccc(NC(=O)c3ccccc3-c3ccc(C(F)(F)F)cc3)cc2C)CC1 (stereo not shown) [Co. No. 211]
HepG2, 24 h
  IC50: 19.9 nM

## CCCNC(=O)C(c1ccccc1)C1CCN(c2ccc(NC(=O)c3cccc4c3-c3ccccc3C4)cc2)CC1 (stereo not shown) [Co. No. 12]
HepG2, 24 h
  IC50: 231 nM

## COC(=O)C(c1ccccc1)N1CCN(c2cc(C)c(NC(=O)c3ccccc3-c3ccc(C(F)(F)F)cc3)c(C)c2)CC1 (stereo not shown) [Co. No. 209]
HepG2, 24 h
  IC50: 7.96 nM

## CCNC(=O)C(c1ccccc1)N1CCN(c2ccc(N(C)C(=O)c3ccccc3-c3ccc(C(F)(F)F)cc3)cc2)CC1 (stereo not shown) [Co. No. 182]
HepG2, 24 h
  IC50: 7.62 nM

## CCNC(=O)C(c1ccccc1)N1CCN(c2ccc(NC(=O)c3cc(C)ccc3-c3ccc(C(F)(F)F)cc3)cc2)CC1 (stereo not shown) [Co. No. 198]
HepG2, 24 h
  IC50: 73.1 nM

## CC(C)NC(=O)C(c1ccccc1)C1CCN(c2ccc(NC(=O)c3ccccc3Cc3ccccc3)cc2)CC1 (stereo not shown) [Co. No. 28]
HepG2, 24 h
  IC50: 767 nM

## O=C(Nc1ccc(N2CCC(C(C(=O)NCc3ccccc3)c3ccccc3)CC2)cc1)c1ccccc1-c1ccc(Cl)cc1 (stereo not shown) [Co. No. 100]
HepG2, 24 h
  IC50: 11.6 nM

## CCCNC(=O)C(c1ccccc1)C1CCN(c2ccc(NC(=O)c3cccc4c3Cc3ccccc3-4)cc2)CC1 (stereo not shown) [Co. No. 14]
HepG2, 24 h
  IC50: ≥ 3000 nM

## CCc1ccc(-c2ccccc2C(=O)Nc2ccc(N3CCC(C(C(=O)OC)c4ccccc4)CC3)cc2)cc1 (stereo not shown) [Co. No. 231]
HepG2, 24 h
  IC50: < 30 nM

## COC(=O)C(c1cccc(Cl)c1)N1CCN(c2ccc(NC(=O)c3ccccc3-c3ccc(C(F)(F)F)cc3)cc2)CC1 (stereo not shown) [Co. No. 260]
HepG2, 24 h
  IC50: < 30 nM

## O=C(Nc1ccc(N2CCC(C(C(=O)OCCc3ccccc3)c3ccccc3)CC2)cc1)c1ccccc1-c1ccc(C(F)(F)F)cc1 (stereo not shown) [Co. No. 250]
HepG2, 24 h
  IC50: 233 nM

## CCCNC(=O)C(c1ccccc1)C1CCN(c2ccc(NC(=O)c3ccccc3-c3ccccc3C(F)(F)F)cc2)CC1 (stereo not shown) [Co. No. 130]
HepG2, 24 h
  IC50: 360 nM

## CCNC(=O)C(c1ccccc1)N1CCN(c2ccc(NC(=O)c3ccccc3-c3ccc(C(F)(F)F)cc3)c(C)c2)CC1 (stereo not shown) [Co. No. 215]
HepG2, 24 h
  IC50: < 30 nM

## C=CCNC(=O)C(c1ccccc1)N1CC=C(c2ccc(NC(=O)c3ccccc3-c3ccccc3)cc2)CC1 (stereo not shown) [Co. No. 167]
HepG2, 24 h
  IC50: < 30 nM

## O=C(Nc1ccc(N2CCC(C(C(=O)Nc3ccccc3)c3ccccc3)CC2)cc1)c1ccccc1Cc1ccccc1 (stereo not shown) [Co. No. 35]
HepG2, 24 h
  IC50: ≥ 3000 nM

## COC(=O)C(c1ccc(Br)cc1)N1CCN(c2ccc(NC(=O)c3ccccc3-c3ccc(C(F)(F)F)cc3)cc2)CC1 (stereo not shown) [Co. No. 261]
HepG2, 24 h
  IC50: 743 nM

## CCCNC(=O)C(c1ccccc1)C1CCN(c2ccc(NC(=O)c3ccccc3-c3cccc(Cl)c3)cc2)CC1 (stereo not shown) [Co. No. 82]
HepG2, 24 h
  IC50: 97.5 nM

## CCNC(=O)C(c1ccc(F)cc1)C1CCN(c2ccc(NC(=O)c3ccccc3-c3ccc(C(C)(C)C)cc3)cc2)CC1 (stereo not shown) [Co. No. 257]
HepG2, 24 h
  IC50: 13.9 nM

## CCCCNC(=O)C(CN1CCN(c2ccc(NC(=O)c3ccccc3-c3ccc(C(F)(F)F)cc3)cc2)CC1)c1ccccc1 (stereo not shown) [Co. No. 64]
HepG2, 24 h
  IC50: 159 nM

## COC(=O)C(c1ccccc1Cl)N1CCN(c2ccc(NC(=O)c3ccccc3-c3ccc(C(F)(F)F)cc3)cc2)CC1 (stereo not shown) [Co. No. 258]
HepG2, 24 h
  IC50: 139 nM

## CCNC(=O)C(c1ccccc1)N1CCN(c2ccc(NC(=O)c3ccccc3-c3ccc(Cl)cc3)cc2)CC1 (stereo not shown) [Co. No. 160]
HepG2, 24 h
  IC50: 32.4 nM

## COC(=O)C(c1ccccc1)N1CCN(c2ccc(NC(=O)c3ccc(F)cc3-c3ccc(C(F)(F)F)cc3)cc2)CC1 (stereo not shown) [Co. No. 185]
HepG2, 24 h
  IC50: 48.8 nM

## CCCNC(=O)C(c1ccccc1)C1CCN(c2ccc(NC(=O)c3ccccc3-c3ccc(OC)cc3)cc2)CC1 (stereo not shown) [Co. No. 46]
HepG2, 24 h
  IC50: 461 nM

## CCNC(=O)C(c1ccccc1)C1CCN(c2ccc(NC(=O)c3ccccc3-c3ccc(F)cc3)cc2)CC1 (stereo not shown) [Co. No. 92]
HepG2, 24 h
  IC50: 63.2 nM

## O=C(Nc1ccc(C2CCN(C(C(=O)OCCc3ccccc3)c3ccccc3)CC2)cc1)c1ccccc1-c1ccc(C(F)(F)F)cc1 (stereo not shown) [Co. No. 266]
HepG2, 24 h
  IC50: 25.6 nM

## COC(=O)C(c1ccccc1)C1CCN(c2ccc(NC(=O)c3ccccc3-c3ccc(C(C)(C)C)cc3)cc2)CC1 (stereo not shown) [Co. No. 238]
Listed as 238
  pIC50: 7.824

## CCCNC(=O)C(c1ccccc1)C1CCN(c2ccc(NC(=O)c3ccccc3-c3ccc4ccccc4c3)cc2)CC1 (stereo not shown) [Co. No. 47]
HepG2, 24 h
  IC50: 199 nM

## C=CCOC(=O)C(c1ccccc1)N1CCC(c2ccc(NC(=O)c3ccccc3-c3ccccc3)cc2)CC1 (stereo not shown) [Co. No. 154]
HepG2, 24 h
  IC50: 2320 nM

## CCCNC(=O)C(c1ccccc1)C1CCN(c2ccc(NC(=O)c3ccccc3C(=O)c3ccccc3)cc2)CC1 (stereo not shown) [Co. No. 15]
HepG2, 24 h
  IC50: 205 nM

## CCCNC(=O)C(c1ccccc1)C1CCN(c2ccc(NC(=O)c3ccccc3OCc3ccccc3)cc2)CC1 (stereo not shown) [Co. No. 18]
HepG2, 24 h
  IC50: 206 nM

## COC(=O)C(c1ccccc1)N1CCN(c2ccc(NC(=O)c3c(F)cccc3-c3ccc(C(F)(F)F)cc3)cc2)CC1 (stereo not shown) [Co. No. 187]
HepG2, 24 h
  IC50: 41.1 nM
